Results: patent US20130123460A1, “PEPTIDE FOR IMPROVING BIOSTABILITY OF BIOACTIVE SUBSTANCE, AND BIOACTIVE SUBSTANCE HAVING IMPROVED BIOSTABILITY” (priority 2010, published 2013)
Entries after “also recorded” stand apart in the source; their conditions may differ. Read-outs that look alike come from different tables or passages of the source. Where no end group is shown, it is not given here.

Legend:
[1] = target: T1, endogenous GLP-1 receptor (Mus musculus, UniProt O35659); experiment: Insulin secretion capacity of GLP-1 peptide complex in MIN 6 cells;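 for all read-outs here: insulin released into the supernatant of MIN 6 cultures quantified by ELISA, absorbance read at 450 nm with 620 nm reference after substrate addition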; type: cell-based; settings: for Insulin secretion capacity (% of control): MIN 6 cells, 1000 pM, 15 mM glucose, control = native GLP-1 at 1000 pM; for Insulin secretion capacity (activity) compared with native GLP-1, in words: MIN 6 cells, 30, 100, 300 or 1000 pM (FIG. 2, FIG. 3)
T1 construct: expressing an endogenous GLP-1 receptor; endogenous in cells; host or cells: MIN 6 mouse insulinoma cells (obtained from a person)
T1 sequence (O35659 22-463): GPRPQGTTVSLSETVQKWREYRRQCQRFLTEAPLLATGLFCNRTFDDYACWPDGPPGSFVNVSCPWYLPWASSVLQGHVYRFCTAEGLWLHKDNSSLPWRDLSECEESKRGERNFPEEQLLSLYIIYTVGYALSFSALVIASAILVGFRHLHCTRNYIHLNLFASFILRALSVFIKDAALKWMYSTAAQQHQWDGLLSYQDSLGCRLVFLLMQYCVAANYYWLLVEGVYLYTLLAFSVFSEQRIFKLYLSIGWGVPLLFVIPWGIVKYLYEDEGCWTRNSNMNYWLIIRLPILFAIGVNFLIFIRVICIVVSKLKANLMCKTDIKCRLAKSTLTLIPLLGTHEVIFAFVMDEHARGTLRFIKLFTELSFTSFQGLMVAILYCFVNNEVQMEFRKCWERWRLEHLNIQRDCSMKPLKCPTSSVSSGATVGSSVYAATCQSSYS
Method: MIN 6 was seeded on a multi-plate, which was cultivated at 37° C. for 48 hours. After that, the culture was washed twice with a KRH buffer solution including 2 mM glucose solution (including NaCl 119 mM, KCl 4.74 mM, CaCl2 2.54 mM, MgCl2 1.19 mM, KH2PO4 1.19 mM, 10 mM HEPES buffer solution pH7.3, and 0.1% BSA), and then it was incubated at 37° C. for one hour. […] A supernatant thereof was recovered, and an amount of insulin secreted was measured. The measurement of the insulin was performed in an enzyme-linked immunosorbent assay (ELISA), and an absorbance was measured at 450 nm (a sub-wavelength: 620 nm) after the addition of a substrate.
EC50 values thereof were calculated in the same manner as in Part 2, and the influence on the bioactivity caused by the addition of the partial peptide of the GA module were inspected in detail.
The analysis was performed using the following calculation formula.

[2] = Plasma stability of GLP-1 peptide complex (remaining rate in rat plasma, HPLC/MS); type: in vitro ADME, SD rats; settings: for remaining at 8 h, 0.5 μmol/L / remaining at 48 h, 0.5 μmol/L: SD
From the text: SD rats were anesthetized with diethyl ether, whole blood was collected and a plasma fraction was separated therefrom.

[3] = rat plasma, 0.5 μmol/L, 37° C., 8 hours, relative to 0 hour = 100%, read-out: Remaining rate in plasma after 8 hours (%)
[4] = rat plasma, 0.5 μmol/L, 37° C., 48 hours, relative to 0 hour = 100%, read-out: Remaining rate in plasma after 48 hours (%)
[5] = rat plasma, 0.5 μmol/L, 37° C., 48 hours, relative to 0 hour = 100%

Row | Molecule | Insulin secretion capacity (% of control) [1] [%] | remaining at 8 h, 0.5 μmol/L ([2]; rat, plasma) [%] | remaining at 48 h, 0.5 μmol/L ([2]; rat, plasma) [%] | other results
1 | HAEGTFTSDVSSYLEGQAAKEFIAWLVKGGPVKALIDEILAA-NH2 [Example 22, GLP-1(7-35)-Gly-Pro-GAm(34-44)-NH2] | 99 | 98 | 94 | 
2 | HSEGTFTSDVSSYLEGQAAKEFIAWLVKGYKNLINNAKTVEGVKALIDEILAALP-NH2 [Comparative Example 6, [Ser8]-GLP-1(7-35)-GAm(21-46)-NH2, reference compound] | 45 |  | 84 | 
3 | CC[C@H](C)[C@H](NC(=O)[C@H](Cc1ccccc1)NC(=O)[C@H](CCC(=O)O)NC(=O)[C@H](CCCCN)NC(=O)[C@H](C)NC(=O)[C@H](C)NC(=O)[C@H](CCC(N)=O)NC(=O)CNC(=O)[C@H](CCC(=O)O)NC(=O)[C@H](CC(C)C)NC(=O)[C@H](Cc1ccc(O)cc1)NC(=O)[C@H](CO)NC(=O)[C@H](CO)NC(=O)[C@@H](NC(=O)[C@H](CC(=O)O)NC(=O)[C@H](CO)NC(=O)[C@@H](NC(=O)[C@H](Cc1ccccc1)NC(=O)[C@@H](NC(=O)CNC(=O)[C@H](CCC(=O)O)NC(=O)[C@H](CO)NC(=O)[C@@H](N)Cc1c[nH]cn1)[C@@H](C)O)[C@@H](C)O)C(C)C)C(=O)N[C@@H](C)C(=O)N[C@@H](Cc1c[nH]c2ccccc12)C(=O)N[C@@H](CC(C)C)C(=O)N[C@H](C(=O)N[C@@H](CCCCN)C(=O)NCC(=O)N[C@@H](CC(=O)O)C(=O)N[C@@H](CCC(=O)O)C(=O)N[C@H](C(=O)N[C@@H](CC(C)C)C(=O)N[C@@H](C)C(=O)N[C@@H](C)C(N)=O)[C@@H](C)CC)C(C)C [Comparative Example 9, [Ser8]-GLP-1(7-35)-GAm(39-44)-NH2, reference compound] |  | 63 | 0 | 
4 | HSEGTFTSDVSSYLEGQAAKEFIAWLVKGTVEGVKALIDEIL-NH2 [Example 12, [Ser8]-GLP-1(7-35)-GAm(30-42)-NH2] | 85 | 105 | 116 | 
5 | HSEGTFTSDVSSYLEGQAAKEFIAWLVKGAKTVEGVKALIDEIL-NH2 [Example 13, [Ser8]-GLP-1(7-35)-GAm(28-42)-NH2] | 105 | 88 | 87 | 
6 | [Ser8]-GLP-1(7-35)-GAm(28-44)-NH2 [Example 14] | 105 |  |  | Insulin secretion capacity (activity) compared with native GLP-1, in words [1]: almost the same activity as that of the native GLP-1
7 | HAEGTFTSDVSSYLEGQAAKEFIAWLVKGGVKALIDEILA-NH2 [Example 7, GLP-1(7-35)-GAm(33-43)-NH2] | 105 | 94 | 87 | 
8 | HSEGTFTSDVSSYLEGQAAKEFIAWLVKGGVKALIDEILAA [Example 19, [Ser8]-GLP-1(7-35)-GAm(33-44)] | 89 | 114 | 102 | 
9 | HSEGTFTSDVSSYLEGQAAKEFIAWLVKGINNAKTVEGVKALIDEILAALP-NH2 [Example 16, [Ser8]-GLP-1(7-35)-GAm(25-46)-NH2] | 104 | 102 | 93 | 
10 | CC[C@H](C)[C@H](NC(=O)[C@H](CCC(=O)O)NC(=O)[C@H](CC(=O)O)NC(=O)[C@@H](NC(=O)CNC(=O)[C@H](CCCCN)NC(=O)[C@@H](NC(=O)[C@H](CC(C)C)NC(=O)[C@H](Cc1c[nH]c2ccccc12)NC(=O)[C@H](C)NC(=O)[C@@H](NC(=O)[C@H](Cc1ccccc1)NC(=O)[C@H](CCC(=O)O)NC(=O)[C@H](CCCCN)NC(=O)[C@H](C)NC(=O)[C@H](C)NC(=O)[C@H](CCC(N)=O)NC(=O)CNC(=O)[C@H](CCC(=O)O)NC(=O)[C@H](CC(C)C)NC(=O)[C@H](Cc1ccc(O)cc1)NC(=O)[C@H](CO)NC(=O)[C@H](CO)NC(=O)[C@@H](NC(=O)[C@H](CC(=O)O)NC(=O)[C@H](CO)NC(=O)[C@@H](NC(=O)[C@H](Cc1ccccc1)NC(=O)[C@@H](NC(=O)CNC(=O)[C@H](CCC(=O)O)NC(=O)[C@H](C)NC(=O)[C@@H](N)Cc1c[nH]cn1)[C@@H](C)O)[C@@H](C)O)C(C)C)[C@@H](C)CC)C(C)C)[C@@H](C)CC)C(N)=O [Comparative Example 10, GLP-1(7-35)-GAm(38-41)-NH2, reference compound] |  | 35 | 0 | 
11 | HSEGTFTSDVSSYLEGQAAKEFIAWLVKGKNLINNAKTVEGVKALIDEILAALP-NH2 [Example 17, [Ser8]-GLP-1(7-35)-GAm(22-46)-NH2] |  | 80 | 93 | 
12 | HSEGTFTSDVSSYLEEEAAKEFIAWLVKGGPSSGAPPPS-NH2 [Comparative Example 13, reference compound] |  | 57 | 12 | 
13 | HSEGTFTSDVSSYLEGQAAKEFIAWLVKGVSDYYKNLINNAKTVEGVKALIDEILAALP-NH2 [Comparative Example 5, [Ser8]-GLP-1(7-35)-GAm(17-46)-NH2, reference compound] |  |  |  | EC50 [1]: > 1 nM; Insulin secretion capacity (activity) compared with native GLP-1, in words [1]: hardly detected; also recorded: remarkably decreased; remaining at 8 h, 0.5 μmol/L [2, 3]: 105%; remaining at 48 h, 0.5 μmol/L [2, 4]: 105%; Remaining rate in plasma after 48 hours (%) [2, 5]: 105%
14 | HSEGTFTSDVSSYLEGQAAKEFIAWLVKGAKTVEGVKALIDE-NH2 [Comparative Example 7, [Ser8]-GLP-1(7-35)-GAm(28-40)-NH2, reference compound] |  | 81 | 4 | 
15 | HSEGTFTSDVSSYLEGQAAKEFIAWLVKGNAKTVEGVKALIDEILAALP-NH2 [Example 15, [Ser8]-GLP-1(7-35)-GAm(27-46)-NH2] | 106 | 111 | 93 | 
16 | CC[C@H](C)[C@H](NC(=O)[C@H](Cc1ccccc1)NC(=O)[C@H](CCC(=O)O)NC(=O)[C@H](CCCCN)NC(=O)[C@H](C)NC(=O)[C@H](C)NC(=O)[C@H](CCC(N)=O)NC(=O)CNC(=O)[C@H](CCC(=O)O)NC(=O)[C@H](CC(C)C)NC(=O)[C@H](Cc1ccc(O)cc1)NC(=O)[C@H](CO)NC(=O)[C@H](CO)NC(=O)[C@@H](NC(=O)[C@H](CC(=O)O)NC(=O)[C@H](CO)NC(=O)[C@@H](NC(=O)[C@H](Cc1ccccc1)NC(=O)[C@@H](NC(=O)CNC(=O)[C@H](CCC(=O)O)NC(=O)CNC(=O)[C@@H](N)Cc1c[nH]cn1)[C@@H](C)O)[C@@H](C)O)C(C)C)C(=O)N[C@@H](C)C(=O)N[C@@H](Cc1c[nH]c2ccccc12)C(=O)N[C@@H](CC(C)C)C(=O)N[C@H](C(=O)N[C@@H](CCCCN)C(=O)NCC(=O)N[C@@H](CCCNC(=N)N)C(=O)N1CCC[C@H]1C(=O)N[C@@H](CO)C(=O)N[C@@H](CO)C(N)=O)C(C)C [Comparative Example 12, [Gly8]-GLP-1(7-35)-RPSS-NH2, reference compound] |  |  |  | remaining at 8 h, 0.5 μmol/L [2, 3]: 34%; remaining at 48 h, 0.5 μmol/L [2, 4]: 0%; Remaining rate in plasma after 48 hours (%) [2, 5]: 0%
17 | [Ser8]-GLP-1(7-35)-GAm(38-42)-NH2 [Example 1] | 125 |  |  | 
18 | [Ser8]-GLP-1(7-35)-GAm(32-44)-NH2 [Example 10] | 109 |  |  | 
19 | HSEGTFTSDVSSYLEGQAAKEFIAWLVKGGVKALIDEILAA-NH2 [Example 9, [Ser8]-GLP-1(7-35)-GAm(33-44)-NH2] | 118 | 104 | 93 | 
20 | CC[C@H](C)[C@H](NC(=O)CNC(=O)[C@H](CCCCN)NC(=O)[C@@H](NC(=O)[C@H](CC(C)C)NC(=O)[C@H](Cc1c[nH]c2ccccc12)NC(=O)[C@H](C)NC(=O)[C@@H](NC(=O)[C@H](Cc1ccccc1)NC(=O)[C@H](CCC(=O)O)NC(=O)[C@H](CCCCN)NC(=O)[C@H](C)NC(=O)[C@H](C)NC(=O)[C@H](CCC(N)=O)NC(=O)CNC(=O)[C@H](CCC(=O)O)NC(=O)[C@H](CC(C)C)NC(=O)[C@H](Cc1ccc(O)cc1)NC(=O)[C@H](CO)NC(=O)[C@H](CO)NC(=O)[C@@H](NC(=O)[C@H](CC(=O)O)NC(=O)[C@H](CO)NC(=O)[C@@H](NC(=O)[C@H](Cc1ccccc1)NC(=O)[C@@H](NC(=O)CNC(=O)[C@H](CCC(=O)O)NC(=O)[C@H](C)NC(=O)[C@@H](N)Cc1c[nH]cn1)[C@@H](C)O)[C@@H](C)O)C(C)C)[C@@H](C)CC)C(C)C)C(=O)N[C@@H](CC(=O)O)C(=O)N[C@@H](CCC(=O)O)C(N)=O [Comparative Example 11, GLP-1(7-35)-GAm(38-40)-NH2, reference compound] |  | 0 | 0 | 
21 | GLP-1(7-36)-NH2 [Comparative Example 1, reference compound] | 100 |  |  | 
22 | [Ser8]-GLP-1(7-35)-GAm(38-44)-NH2 [Example 2] | 120 |  |  | 
23 | HSEGTFTSDVSSYLEGQAAKEFIAWLVKGAKTVEGVKAL-NH2 [Comparative Example 8, [Ser8]-GLP-1(7-35)-GAm(28-37)-NH2, reference compound] |  | 27 | 0 | 
